Laboratory results published in patent US20120064505A1, “MEASUREMENT OF MATERIAL PROPERTIES AND RELATED METHODS AND COMPOSITIONS” (Massachusetts Institute of Technology, priority 2010, published 2012).
“Also recorded” adds a separate entry of the source.

Assays:
[1] = test system: Acute promyelocytic leukemia cells; settings: differentiated down the neutrophil lineage for three days; cited from earlier work
[2] = test system: P. falciparum-infected RBCs (iRBCs) and co-cultured uninfected RBCs (uRBCs); experiment: Microfluidic deformability cytometer: RBC mobility after artesunate treatment; type: cell-based, human; settings: for separation resolution between iRBCs and uRBCs: after drug treatment vs without
Procedure: The deformability of both iRBCs and uRBCs were measured at 2, 4 and 6 hours after artesunate drug treatment (FIG. 60). A synchronized culture of rings with ˜15% parasitemia was resuspended at 0.1% hematocrit in malaria culture medium containing 0.01, 0.05 or 0.1 μg/ml of artesunate.
Layout program CleWin3.0 was used to design the microfluidic device, which consists of a 500×500 μm^2 inlet reservoir, a 500×500 μm^2 outlet reservoir, and parallel capillary channels with triangular pillar arrays (FIG. 55A). Three different pore-size of 2.5, 3.0 and 4.0 μm were designed for the capillary channels to test optimum deformation condition for the experiment. A silicon mold of the device was made using standard silicon processing techniques. The photolithography step was done using a 5× reduction step-and-repeat projection stepper (Nikon NSR2005i9, Nikon Prevision) and reactive-ion etching (RIE) techniques were used to give the mold a final depth of 4.2 μm. Final device was then casted from the silicon mold using polydimethylsiloxane (PDMS) and was sealed by a glass slide using oxygen plasma.
P. falciparum 3D7A parasites (from Malaria Research and Reference Reagent Source, American Type Culture Collection) were cultured in leukocyte-free human RBCs (Research Blood Components, Brighton Mass.) in RPMI 1640 complete medium as described (Trager and Jensen J. parasitol. 2005). Parasites cultures were synchronized by sorbitol lysis (Lambros, C 1979 J. parasitol.) two hours after merozoite invasion.
1× Phosphate buffered saline (PBS) was mixed with 1% w/v Bovine Serum Albumin (BSA) (Sigma-Aldrich, St. Louis, Mo.) as a stock solution and was fresh made on every experimental day. For experiments tracking fluid flow velocity, 200 nm FluoSpheres europium luminescent microspheres (Molecular Probes, Eugene, Oreg.) were used at a final concentration of 5.0×10^−[…] percent solids. For experiments involving only healthy RBCs, fresh whole blood (Research Blood Components, Brighton, Mass.) was used at 100 times dilution (i.e. 1 μl whole blood with 99 μl stock solution). For experiments involving parasitized cells, 1 ml of cultured cells were spun down at 1,000 rpm for 5 minute; 1 μl of the pellet was then aliquot to 200 μl stock solution.
10 μl of 1×10^−6M thiazole orange Orange (Invitrogen, Carlsbad, Calif.), which stains the RNA of the cell, was added to the aforementioned 200 μl iRBC solution 20 minutes before the experiment. The infected cells would appear fluorescent under the GFP filter set whereas the uninfected cells were seen as dark shadows.
To control the ambient temperature, the microscope surface was replaced by a heating chamber (Olympus), which was preheated to a desired temperature range (i.e. 30-40° C.) for 30 minutes before the beginning of every experiment. […]

[3] = test system: RBCs; experiment: Deformability cytometer: velocity and passage of glutaraldehyde-treated RBCs; type: cell-based, human; settings: 30 minutes in PBS; about 0.61 Pa/μm; FIG. 5B
Text: A mold of the device was made on a silicon wafer using photolithography and reactive-ion etching techniques. A 5× reduction step-and-repeat projection stepper (Nikon NSR2005i9, Nikon Precision) was used for patterning. The spacing between pillars was 3 μm, and the depth of the device was 4.2 μm. The device was made using standard PDMS casting protocols and bonded to a glass slide.
PBS was mixed with 0.2% w/v Pluronic F-108 (BASF, Mount Olive, N.J.) and 1% w/v Bovine Serum Albumin (BSA) (Sigma-Aldrich, St. Louis, Mo.) as a stock solution to prevent RBC adhesion to the device walls. For the fluorescent bead experiments, 200 nm FluoSpheres europium luminescent microspheres (Molecular Probes, Eugene, Oreg.) diluted to a final concentration of 1.25×10^−5 percent solids were used.
In experiments involving blood, 1 μl of whole blood (−50% hematocrit) was diluted in 100 μl of the PBS-pluronic-BSA solution for all of the experiments. In experiments involving parasites that express GFP, no further treatment was performed. In experiments involving healthy RBCs, 1 μl of whole blood (Research Blood Components, Brighton, Mass.), 1 μl of 50 μg/ml of Cell Tracker Orange (Invitrogen, Carlsbad, Calif.), and 98 μl of PBS were mixed with the indicated concentration of glutaraldehyde and allowed to sit for 30 minutes. The sample was then washed 3 times with the PBS-Pluronic-BSA solution. […]

[4] = test system: WAS−/− T cells; experiment: Micropipette aspiration of chemokine-stimulated migratory T cells (WAS−/−); type: cell-based, mouse; settings: naïve WAS−/− T cells that migrated toward CCL19 100 ng/mL, ~7 hours; mean+/−SD
Procedure: (§1) Cells from the peripheral lymph nodes and the spleen of Balb/c mice and WAS−/− mice on Balb/c background were pooled and enriched using the EasySep Mouse CD8+ T Cell Enrichment Kit from STEMCELL Technologies (British Columbia, Canada). Enrichment was confirmed using fluorescence-activated cell sorting (FACS) by staining the cells with FITC/anti-Thy1.2 and PE/anti-CD8α antibodies (Abs). The'memory T cell population was assessed by evaluating the expression of CD44 and CD62L via FACS. T cells in an activation medium with 100 units/mL IL-2 and 1% anti-CD28 Ab were activated by plate-bound anti-CD3 Abs for 4 day at 37° C. The activation medium included RPMI with 10% FBS, 10 mM HEPES (1M), 1% NEAA, 1% sodium pyruvate (100 mM), 50 μM β-mercaptoethanol, 4 mM L-glutamine, and 100 μg/mL Pen/Strep. Cell activation was verified via FACS measurement of CD25.
Micropipettes made using a micropipette puller were trimmed to 2.5-3 or 4.5-5 μm inner diameter for testing naïve and activated T cells. MPA glass chambers consisted of a 24 mm×60 mm microscope coverslip bottom, a U-shaped parafilm spacer, and a 22 mm×22 mm microscope coverslip top. The assembly was baked for two hours at 80° C. to ensure good adhesion between the components. […]
3×10^5 cells in 100 μL RPMI with 10% FBS and 1% HEPES was stained with 10 μL trypan blue. […] The cell movement in the micropipette was recorded with a CCD camera. […]

[5] = test system: WT T cells; experiment: Micropipette aspiration of chemokine-stimulated migratory T cells (WT); type: cell-based, mouse
Procedure: as §1
Micropipettes made using a micropipette puller were trimmed to 2.5-3 or 4.5-5 μm inner diameter for testing naïve and activated T cells. MPA glass chambers consisted of a 24 mm×60 mm microscope coverslip bottom, a U-shaped parafilm spacer, and a 22 mm×22 mm microscope coverslip top. The assembly was baked for two hours at 80° C. to ensure good adhesion between the components.
(§2) Enriched WT and WAS−/− T cells in DMEM with 1% BSA and 0.1% Pen/Strep were induced to migrate through polycarbonate Transwell inserts (Costar, Cambridge, Mass.) with 5-μm pores in a 24-well plate toward a CCL19 chemokine source (R&D Systems, Minneapolis, Minn.). Inserts contained 5×10^5 cells in 100 μL of medium, and wells contained 1 mL of medium with either no CCL19 or 100 ng/mL of CCL19. Cells were allowed to migrate for ˜7 hours at 37° C., and those that crossed the membrane were collected and used for MPA studies.
3×10^5 cells in 100 μL RPMI with 10% FBS and 1% HEPES was stained with 10 μL trypan blue. The mixture was added to 600 μL of either the RPMI medium or the T cell activation medium with IL-2 for naïve and activated T cell testing. […] The cell movement in the micropipette was recorded with a CCD camera. […]

[6] = test system: WAS−/− T cells; experiment: In vitro Transwell cell migration toward CCL19 (WAS−/−); type: cell-based, mouse; settings: seven hours of exposure to CCL19; 5-μm pore Transwell
Procedure: as §2

In the case of `CC1=C(/C=C/C(C)=C/C=C/C(C)=C/C(=O)O)C(C)(C)CCC1` [all-trans retinoic acid], the “compliance increase vs control” value [1] is listed as 45%.

For `C[C@H]1[C@H](OC(=O)CCC(=O)O)O[C@@H]2O[C@@]3(C)CC[C@H]4[C@H](C)CC[C@@H]1[C@@]24OO3` [artesunate], the “cell mobility change due to drug treatment” value ([2]; FIG. 60, 2, 4 and 6 hours, 0.01 to 0.1 μg/ml) was “significant decrease in cell mobility”, the “stiffening effect on iRBCs and uRBCs” value ([2]; after artesunate treatment) was “stiffening effect on both iRBCs and uRBCs; also recorded: both iRBCs and uRBCs stiffened considerably” and the “separation resolution between iRBCs and uRBCs” value [2] was “almost doubled”. For the same molecule, the “separation resolution between iRBCs and uRBCs” value ([2]; listed as Artesunate) was “doubled”.

With `O=CCCCC=O` [glutaraldehyde] the “RBC stiffness / velocity with increasing concentration” value [3] was “progressively stiffer with decreasing velocity”.

B1: CCL19: chemokine (R&D Systems) used as chemoattractant for T cells (protein, UniProt Q99731 22-98, looked up)
C-C motif chemokine 19: GTNDAEDCCLSVTQKPIPGYIVRNFHYLLIKDGCRVPAVVFTTLRGRQLCAPPDQPWVERIIQRLQRTSAKMKRRSS
For B1, the “average apparent Young's modulus” value [4] was 152+/−102 Pa, the “reduction of modulus from the value in the absence of CCL19” value ([5]; migratory WT cells) was “more than 2 times” and the “stiffness relative to activated cells” value ([5]; migratory WT cells vs activated WT T cells) was “about 1.4 times”. For the same molecule, the “average apparent Young's modulus” value ([5]; naïve WT T cells that migrated toward CCL19 100 ng/mL, ~7 hours, mean+/−SD) was 128+/−33 Pa and the cells migrated [6] was roughly 6.4%.
